These results are taken from patent publication US12649733B2, “3,6-diamino-pyridazin-3-yl derivatives, pharmaceutical compositions containing them and their uses as pro-apoptotic agents” (LES LABORATOIRES SERVIER, priority 2019, dated 2026).

One assay deals with T1, Bcl-xL protein (Homo sapiens, UniProt Q07817, N197C).
T1 construct: (2-197)[N197C]; His-His (two His8 stretches joined by a Gly/Ala/Ser/Thr linker)
The assay is described as follows: Fluorescence quenching assay (PUMA peptide displacement). The format is binding. The note with it: 1 nM protein, 400 nM peptide, 2 hours at 23° C.; KI determined from IC50. The source says: Fluorescence quenching assay measures the change in fluorescence intensity of C-terminally Cy5-labeled BCL-xL protein, His-His-(EK)-hs ? (2-197)[N197C] (UniProtKB® primary accession number Q07817-1) having an amino acid sequence (SEQ ID:03): [[…] […] […] […] […]] which is linked in C-terminal region to the amino acid X which corresponds to a cysteine labeled on the sulfur with Sulfo-Cyanine5 from Lumiprobe GmbH catalogue number 13380, upon binding of a C-terminally labeled peptide derived from PUMA (UniProtKB® primary accession number Q9BXH1) having an aminoacid sequence (SEQ ID:04): [[…]] which is linked in C-terminal region to the amino acid X′ where X′ is cysteine labeled on the sulfur with TQ5WS from AAT Bioquest catalogue number 2079.
The addition of a compound which binds competitively to the same site as the peptide will result in an increase in the fluorescence intensity of the protein due to displacement of the fluorescence quencher.
An 11-point serial dilution of each compound was prepared in DMSO the final buffer conditions were 10 mM 4-(2-hydroxyethyl)-1-piperazineethanesulfonic acid [HEPES], 150 mM NaCl, 0.05% Tween 20, pH 7.4 and 5% DMSO. The final protein concentration in the assay was 1 nM with the peptide present at 400 nM. The experiments were incubated for 2 hours at 23° C. before fluorescence intensity was measured on a Biotek SynergyNeo plate reader (Excitation 620 nm, emission 680 nm). […] The KI values were determined from the IC50 values according to Cer et al, Nucleic Acids Res, 2009, Jul. 1: 37(WebServer issue): W441-W445.

For a further assay, the system named is MOLT-4 cells. The assay is described as follows: MOLT-4 cell viability, MTT assay. The note with it: Homo sapiens, MOLT-4, 48 h, 48 h exposure. The format is cell-based. A digest of the protocol:
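Viability read by MTT reduction (OD 540 nm after overnight SDS/HCl lysis) after 48 h compound treatment of cells in RPMI 1640/10% FBS. Triplicates at nine concentrations, 3.16-fold apart; four-parameter curve fitting yields IC50.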

T1 sequence (Q07817 2-197 N197C): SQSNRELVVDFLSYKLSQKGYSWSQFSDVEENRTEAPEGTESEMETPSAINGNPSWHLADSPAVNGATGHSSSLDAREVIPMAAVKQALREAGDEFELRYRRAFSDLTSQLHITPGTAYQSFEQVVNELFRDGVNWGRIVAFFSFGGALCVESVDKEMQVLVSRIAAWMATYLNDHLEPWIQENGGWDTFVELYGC

As for `CNCCN(C)CCCCN(c1cc(C)c(Nc2nc3ccccc3s2)nn1)c1nc(C(=O)O)c(CCCOc2ccc(C#CCN(C)C)cc2F)s1` [Example 178, 2-[[6-(1,3-Benzothiazol-2-ylamino)-5-methyl-pyridazin-3-yl]-[4-[methyl-[2-(methylamino)ethyl]amino]butyl]amino]-5-[3-[4-[3-(dimethylamino)prop-1-ynyl]-2-fluoro-phenoxy]propyl]thiazole-4-carboxylic acid], the Ki on Bcl-xL protein is 0.0074 nM.

As to `Cc1cc(N(CCCCNCCN2CCCCC2)c2nc(C(=O)O)c(CCCOc3ccc(C#CCN(C)C)cc3F)s2)nnc1Nc1nc2ccccc2s1` [Example 179, 2-[[6-(1,3-Benzothiazol-2-ylamino)-5-methyl-pyridazin-3-yl]-[4-[2-(1-piperidyl)ethylamino]butyl]amino]-5-[3-[4-[3-(dimethylamino)prop-1-ynyl]-2-fluoro-phenoxy]propyl]thiazole-4-carboxylic acid], the Ki on Bcl-xL protein stood at 0.0068 nM. The same measure, in the same setting: under `Cc1cc(N(CCCCNCCN2CCOCC2)c2nc(C(=O)O)c(CCCOc3ccc(C#CCN(C)C)cc3F)s2)nnc1Nc1nc2ccccc2s1` [Example 180, 2-[[6-(1,3-Benzothiazol-2-ylamino)-5-methyl-pyridazin-3-yl]-[4-(2-morpholinoethylamino)butyl]amino]-5-[3-[4-[3-(dimethylamino)prop-1-ynyl]-2-fluoro-phenoxy]propyl]thiazole-4-carboxylic acid] stands 0.0052 nM. With `Cc1cc(N(CCCCNC2CCN(C)CC2)c2nc(C(=O)O)c(CCCOc3ccc(C#CCN(C)C)cc3F)s2)nnc1Nc1nc2ccccc2s1` [Example 181, 2-[[6-(1,3-Benzothiazol-2-ylamino)-5-methyl-pyridazin-3-yl]-[4-[(1-methyl-4-piperidyl)amino]butyl]amino]-5-[3-[4-[3-(dimethylamino)prop-1-ynyl]-2-fluoro-phenoxy]propyl]thiazole-4-carboxylic acid], at Bcl-xL protein, the Ki came to 0.0043 nM. Same read-out and setting: the same measure for `CNCC#Cc1ccc(OCCCc2sc(N(C)c3cc(C(F)(F)F)c(Nc4nc5ccccc5s4)nn3)nc2C(=O)O)c(F)c1` [Example 209, 2-[[6-(1,3-Benzothiazol-2-ylamino)-5-(trifluoromethyl)pyridazin-3-yl]-methyl-amino]-5-[3-[2-fluoro-4-[3-(methylamino)prop-1-ynyl]phenoxy]propyl]thiazole-4-carboxylic acid]: 0.023 nM.

For `Cc1cc(N(CCCCC[N+](C)(C)CCO)c2nc(C(=O)[O-])c(CCCOc3ccc(C#CCN(C)C)cc3F)s2)nnc1Nc1nc2ccccc2s1` [Example 226, 2-[[6-(1,3-Benzothiazol-2-ylamino)-5-methyl-pyridazin-3-yl]-[5-[2-hydroxyethyl(dimethyl)ammonio]pentyl]amino]-5-[3-[4-[3-(dimethylamino)prop-1-ynyl]-2-fluoro-phenoxy]propyl]thiazole-4-carboxylate], the IC50 in the assay on MOLT-4 cells was determined as 752 nM. Further, on Bcl-xL protein, the Ki turned out to be 0.0053 nM. The like results for `Cc1cc(N(CCCCC[N+](C)(C)CC(=O)O)c2nc(C(=O)[O-])c(CCCOc3ccc(C#CCN(C)C)cc3F)s2)nnc1Nc1nc2ccccc2s1` [Example 227, 2-[[6-(1,3-Benzothiazol-2-ylamino)-5-methyl-pyridazin-3-yl]-[5-[carboxymethyl(dimethyl)ammonio]pentyl]amino]-5-[3-[4-[3-(dimethylamino)prop-1-ynyl]-2-fluoro-phenoxy]propyl]thiazole-4-carboxylate] were, in that order, 802 nM and 0.0035 nM. With `CNCC#Cc1ccc(OCCCc2sc(N(CCCC[N+](C)(C)C)c3cc(C)c(Nc4nc5ccccc5s4)nn3)nc2C(=O)O)c(F)c1` [Example 232, 2-[[6-(1,3-Benzothiazol-2-ylamino)-5-methyl-pyridazin-3-yl]-[4-(trimethylammonio)butyl]amino]-5-[3-[2-fluoro-4-[3-(methylamino)prop-1-ynyl]phenoxy]propyl]thiazole-4-carboxylate], the Ki at Bcl-xL protein was determined as 0.0017 nM. In the assay with MOLT-4 cells, `CNCC#Cc1ccc(OCCCc2sc(N(CCCP(=O)(O)O)c3cc(C)c(Nc4nc5ccccc5s4)nn3)nc2C(=O)O)c(F)c1` [Example 237, 2-[[6-(1,3-Benzothiazol-2-ylamino)-5-methyl-pyridazin-3-yl]-(3-phosphonopropyl)amino]-5-[3-[2-fluoro-4-[3-(methylamino)prop-1-ynyl]phenoxy]propyl]thiazole-4-carboxylic acid] came in with an IC50 of 750 nM. Further, on Bcl-xL protein, the Ki is 0.0018 nM.

As for `Cc1cc(N(CCCC(=O)O)c2nc(C(=O)O)c(CCCOc3ccc(C#CCN(C)C)cc3F)s2)nnc1Nc1nc2ccccc2s1` [Example 238, 2-({6-[(1,3-Benzothiazol-2-yl)amino]-5-methylpyridazin-3-yl}(3-carboxypropyl)amino)-5-(3-{4-[3-(dimethylamino)prop-1-yn-1-yl]-2-fluorophenoxy}propyl)-1,3-thiazole-4-carboxylic acid], the IC50 in the assay on MOLT-4 cells turned out to be 149 nM. The Ki on Bcl-xL protein worked out at 0.0045 nM.

Molecule `Cc1cc(N(CCCP(=O)(O)O)c2nc(C(=O)O)c(CCCOc3ccc(C#CCN(C)C)cc3F)s2)nnc1Nc1nc2ccccc2s1` [Example 239, 2-({6-[(1,3-Benzothiazol-2-yl)amino]-5-methylpyridazin-3-yl}(3-phosphonopropyl)amino)-5-(3-{4-[3-(dimethylamino)prop-1-yn-1-yl]-2-fluorophenoxy}propyl)-1,3-thiazole-4-carboxylic acid] had an IC50 in the assay with MOLT-4 cells of 314 nM. Moreover, on Bcl-xL protein, the Ki is 0.0027 nM. In the assay with MOLT-4 cells, `Cc1cc(N(CCCS(=O)(=O)O)c2nc(C(=O)O)c(CCCOc3ccc(C#CCN(C)C)cc3F)s2)nnc1Nc1nc2ccccc2s1` [Example 240, 2-({6-[(1,3-Benzothiazol-2-yl)amino]-5-methylpyridazin-3-yl}(3-sulfopropyl)amino)-5-(3-{4-[3-(dimethylamino)prop-1-yn-1-yl]-2-fluorophenoxy}propyl)-1,3-thiazole-4-carboxylic acid] displayed an IC50 of 1320 nM. For the same molecule, at Bcl-xL protein, the Ki was 0.0073 nM.

Take `Cc1cc(N(CCCCS(=O)(=O)O)c2nc(C(=O)O)c(CCCOc3ccc(C#CCN(C)C)cc3F)s2)nnc1Nc1nc2ccccc2s1` [Example 241, 2-({6-[(1,3-Benzothiazol-2-yl)amino]-5-methylpyridazin-3-yl}(4-sulfobutyl)amino)-5-(3-{4-[3-(dimethylamino)prop-1-yn-1-yl]-2-fluorophenoxy}propyl)-1,3-thiazole-4-carboxylic acid]: the IC50 with MOLT-4 cells was determined as 1190 nM. Further, the Ki at Bcl-xL protein is 0.0094 nM. Taken in the same sequence, the figures for `Cc1cc(N(CCCCP(=O)(O)O)c2nc(C(=O)O)c(CCCOc3ccc(C#CCN(C)C)cc3F)s2)nnc1Nc1nc2ccccc2s1` [Example 242, 2-({6-[(1,3-Benzothiazol-2-yl)amino]-5-methylpyridazin-3-yl}(4-phosphonobutyl)amino)-5-(3-{4-[3-(dimethylamino)prop-1-yn-1-yl]-2-fluorophenoxy}propyl)-1,3-thiazole-4-carboxylic acid] were 525 nM and 0.0078 nM. Taken in the same sequence, the figures for `Cc1cc(N(CCCCC(=O)O)c2nc(C(=O)O)c(CCCOc3ccc(C#CCN(C)C)cc3F)s2)nnc1Nc1nc2ccccc2s1` [Example 243, 2-({6-[(1,3-Benzothiazol-2-yl)amino]-5-methylpyridazin-3-yl}(4-carboxybutyl)amino)-5-(3-{4-[3-(dimethylamino)prop-1-yn-1-yl]-2-fluorophenoxy}propyl)-1,3-thiazole-4-carboxylic acid] were 112 nM and 0.005 nM.

`Cc1cc(N(C)c2ccc(-c3cnn(CC45CC6(C)CC(C)(C4)CC(OCCNCC[C@H](O)CO)(C6)C5)c3C)c(C(=O)O)n2)nnc1Nc1nc2ccccc2s1` [Example 247, 6-[{6-[(1,3-benzothiazol-2-yl)amino]-5-methylpyridazin-3-yl}(methyl)amino]-3-(1-{[3-(2-{[(3S)-3,4-dihydroxybutyl]amino}ethoxy)-5,7-dimethyladamantan-1-yl]methyl}-5-methyl-1H-pyrazol-4-yl)pyridine-2-carboxylic acid]: the IC50 with MOLT-4 cells amounted to 2.81 nM. Besides, the Ki on Bcl-xL protein turned out to be 0.0012 nM. The molecule `Cc1cc(N(C)c2ccc(-c3cnn(CC45CC6(C)CC(C)(C4)CC(OCCN(C)C)(C6)C5)c3C)c(C(=O)O)n2)nnc1Nc1nc2ccccc2s1` [Example 250, 6-[{6-[(1,3-benzothiazol-2-yl)amino]-5-methylpyridazin-3-yl}(methyl)amino]-3-[1-{{3-[2-(dimethylamino)ethoxy]-5,7-dimethyladamantan-1-yl}methyl)-5-methyl-1H-pyrazol-4-yl]pyridine-2-carboxylic acid] returned an IC50 in the assay with MOLT-4 cells of 0.246 nM. In addition, the Ki at Bcl-xL protein amounted to 0.0022 nM.
